From US7138361B2, “Herbicidal heterocycles” (E. I. du Pont de Nemours and Company, priority 2000, dated 2006)

How the values were obtained:
Assay in all cases: Test C preemergence
Type in all cases: in vivo
[1] = system: kochia (Kochia scoparia)
How it was run: (§1)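 Herbicidal effect is a visual 0–100 score (100 = complete control) assigned versus untreated plants, 12 to 14 days after spraying in the greenhouse. Test compounds were applied in a non-phytotoxic, surfactant-containing solvent.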

[2] = system: morningglory (Ipomoea hederacea)
How it was run: as §1

[3] = system: velvetleaf (Abutilon theophrasti)
How it was run: as §1

[4] = system: johnsongrass (Sorghum halepense)
How it was run: as §1

[5] = system: crabgrass (Digitaria sanguinalis)
How it was run: as §1

[6] = system: giant foxtail (Setaria faberii)
How it was run: as §1

[7] = system: soybean (Glycine max)
How it was run: as §1

[8] = system: pigweed (Amaranthus retroflexus)
How it was run: as §1

[9] = system: lambsquarters (Chenopodium album)
How it was run: as §1

[10] = system: Sunflower
[11] = system: corn (Zea mays)
How it was run: as §1

[12] = system: bermudagrass (Cynodon dactylon)
How it was run: as §1

[13] = system: Surinam grass (Brachiaria decumbens)
How it was run: as §1

[14] = system: woolly cupgrass (Eriochloa villosa)
How it was run: as §1

[15] = system: Nightshade
[16] = system: yellow nutsedge (Cyperus esculentus)
How it was run: as §1

[17] = system: goosegrass (Eleusine indica)
How it was run: as §1

[18] = system: cocklebur (Xanthium strumarium)
How it was run: as §1

[19] = system: Nightshade; conditions: Rate 250 g/ha, visual evaluation after 12 to 14 days
[20] = system: Sunflower; conditions: scale 0 to 100, 0 no effect, 100 complete control
[21] = system: common ragweed (Ambrosia elatior)
How it was run: as §1

[22] = system: Sunflower; conditions: scale 0 to 100
[23] = Preemergence, Rate 500 g/ha, scale 0 to 100
[24] = Rate 62 g/ha, scale 0 to 100, 0 no effect, 100 complete control
[25] = preemergence, Rate 250 g/ha, visual evaluation after 12 to 14 days
[26] = preemergence, Rate 125 g/ha, scale 0 to 100, 0 no effect, 100 complete control
[27] = Rate 125 g/ha, scale 0 to 100, 0 no effect, 100 complete control
[28] = preemergence, Rate 31 g/ha, scale 0 to 100
[29] = preemergence, Rate 62 g/ha, scale 0 to 100
[30] = preemergence, Rate 250 g/ha, scale 0 to 100, 0 no effect, 100 complete control

For `CC(C)(C)c1ccn(C2CCN(c3cccc(C(F)(F)F)c3)C2=S)n1` (centres unmarked) [Compound 22], the “Plant response rating, Kochia” value [1, 23] was 100, the “Plant response rating, Kochia” value [1, 24] was 100 and the “Plant response rating (0 to 100), Kochia” value [1, 25] was 100. The “Plant response rating, Kochia” value [1, 26] was 100, the “Plant response rating, Morningglory” value [2, 23] was 0 and the “Plant response rating, Morningglory” value [2, 24] was 0. The “Plant response rating (0 to 100), Morningglory” value [2, 25] was 0, the “Plant response rating, Morningglory” value [2, 26] was 0 and the “Plant response rating, Velvetleaf” value [3, 23] was 0. The “Plant response rating, Velvetleaf” value [3, 24] was 0, the “Plant response rating (0 to 100), Velvetleaf” value [3, 25] was 0 and the “Plant response rating, Velvetleaf” value [3, 26] was 0. For the same compound, the “Plant response rating, Johnsongrass” value [4, 23] was 40, the “Plant response rating, Johnsongrass” value [4, 24] was 20 and the “Plant response rating (0 to 100), Johnsongrass” value [4, 25] was 40. The “Plant response rating, Johnsongrass” value [4, 26] was 30, the “Plant response rating, Crabgrass” value [5, 23] was 100 and the “Plant response rating, Crabgrass” value [5, 24] was 50. For the same compound, the “Plant response rating (0 to 100), Crabgrass” value [5, 25] was 100, the “Plant response rating, Crabgrass” value [5, 26] was 100 and the “Plant response rating, Foxtail, Giant” value [6, 23] was 100. The “Plant response rating, Foxtail, Giant” value [6, 24] was 30, the “Plant response rating (0 to 100), Foxtail, Giant” value [6, 25] was 0 and the “Plant response rating, Foxtail, Giant” value [6, 26] was 0. For the same compound, the “Plant response rating, Soybean” value [7, 23] was 40, the “Plant response rating, Soybean” value [7, 24] was 30 and the “Plant response rating (0 to 100), Soybean” value [7, 25] was 40. The “Plant response rating, Soybean” value [7, 26] was 40, the “Plant response rating, Pigweed” value [8, 23] was 100 and the “Plant response rating, Pigweed” value [8, 24] was 100. For the same compound, the “Plant response rating (0 to 100), Pigweed” value [8, 25] was 50, the “Plant response rating, Pigweed” value [8, 26] was 50 and the “Plant response rating, Lambsquarters” value [9, 23] was 100. For the same compound, the “Plant response rating, Lambsquarters” value [9, 24] was 100, the “Plant response rating (0 to 100), Lambsquarters” value [9, 25] was 100 and the “Plant response rating, Lambsquarters” value [9, 26] was 100. For the same compound, the “Plant response rating, Sunflower” value [10, 24] was 0, the “Plant response rating, Sunflower” value ([10]; Rate 500 g/ha, scale 0 to 100) was 0 and the “Plant response rating, Corn” value [11, 23] was 30. For the same compound, the “Plant response rating, Corn” value [11, 24] was 20, the “Plant response rating (0 to 100), Corn” value [11, 25] was 20 and the “Plant response rating, Corn” value [11, 26] was 20. The “Plant response rating, Bermudagrass” value [12, 23] was 100, the “Plant response rating, Bermudagrass” value [12, 24] was 30 and the “Plant response rating (0 to 100 where 0 is no effect and 100 is complete control), Bermudagrass” value [12, 25] was 100. The “Plant response rating, Bermudagrass” value [12, 26] was 100, the “Plant response rating, Surinam grass” value [13, 23] was 90 and the “Plant response rating, Surinam grass” value [13, 24] was 0. For the same compound, the “Plant response rating (0 to 100), Surinam grass” value [13, 25] was 60, the “Plant response rating, Surinam grass” value [13, 26] was 40 and the “Plant response rating, Cupgrass, Woolly” value [14, 23] was 100. The “Plant response rating, Cupgrass, Woolly” value [14, 24] was 40, the “Plant response rating (0 to 100), Cupgrass, Woolly” value [14, 25] was 100 and the “Plant response rating, Cupgrass, Woolly” value [14, 26] was 70. The “Plant response rating, Nightshade” value ([15]; Rate 62 g/ha; scale 0 to 100, 0 no effect, 100 complete control) was 0, the “Plant response rating, Nightshade” value [15, 27] was 0 and the “Plant response rating, Nightshade” value ([15]; Rate 500 g/ha, scale 0 to 100) was 80. The “Plant response rating, Nutsedge” value [16, 23] was 20, the “Plant response rating, Nutsedge” value [16, 24] was 0 and the “Plant response rating (0 to 100), Nutsedge” value [16, 25] was 0. The “Plant response rating, Nutsedge” value [16, 26] was 0, the “Plant response rating, Goosegrass” value [17, 23] was 100 and the “Plant response rating, Goosegrass” value [17, 24] was 90. For the same compound, the “Plant response rating (0 to 100), Goosegrass” value [17, 25] was 100, the “Plant response rating, Goosegrass” value [17, 26] was 90 and the “Plant response rating, Cocklebur” value [18, 23] was 0. The “Plant response rating, Cocklebur” value [18, 24] was 0, the “Plant response rating (0 to 100), Cocklebur” value [18, 25] was 0 and the “Plant response rating, Cocklebur” value [18, 26] was 0. The “Plant response rating (0 to 100), Nightshade” value [19] was 40 and the “Plant response rating, Sunflower” value ([20]; Rate 125 g/ha) was 0.

With `Cc1cc(C)nc(N2CCC(n3ccc(C(C)(C)C)n3)C2=O)c1` (centres unmarked) [Compound 138] the “Plant response rating, Kochia” value [1, 27] was 100, the “Plant response rating, Kochia” value [1, 28] was 60 and the “Plant response rating, Kochia” value [1, 29] was 90. For the same compound, the “Plant response rating, Kochia” value [1, 30] was 100, the “Plant response rating, Morningglory” value [2, 27] was 80 and the “Plant response rating, Morningglory” value [2, 28] was 30. For the same compound, the “Plant response rating, Morningglory” value [2, 29] was 30, the “Plant response rating, Morningglory” value [2, 30] was 80 and the “Plant response rating, Velvetleaf” value [3, 27] was 0. The “Plant response rating, Velvetleaf” value [3, 28] was 0, the “Plant response rating, Velvetleaf” value [3, 29] was 0 and the “Plant response rating, Velvetleaf” value [3, 30] was 0. For the same compound, the “Plant response rating, Johnsongrass” value [4, 27] was 30, the “Plant response rating, Johnsongrass” value [4, 28] was 0 and the “Plant response rating, Johnsongrass” value [4, 29] was 0. For the same compound, the “Plant response rating, Johnsongrass” value [4, 30] was 40, the “Plant response rating, Ragweed, Common” value [21, 27] was 0 and the “Plant response rating, Ragweed, Common” value [21, 28] was 0. The “Plant response rating, Ragweed, Common” value [21, 29] was 0, the “Plant response rating, Ragweed, Common” value [21, 30] was 30 and the “Plant response rating, Crabgrass” value [5, 27] was 100. For the same compound, the “Plant response rating, Crabgrass” value [5, 28] was 20, the “Plant response rating, Crabgrass” value [5, 29] was 70 and the “Plant response rating, Crabgrass” value [5, 30] was 100. The “Plant response rating, Foxtail, Giant” value [6, 27] was 100, the “Plant response rating, Foxtail, Giant” value [6, 28] was 50 and the “Plant response rating, Foxtail, Giant” value [6, 29] was 80. The “Plant response rating, Foxtail, Giant” value [6, 30] was 100, the “Plant response rating, Soybean” value [7, 27] was 60 and the “Plant response rating, Soybean” value [7, 29] was 30. The “Plant response rating, Soybean” value [7, 30] was 100, the “Plant response rating, Pigweed” value [8, 27] was 50 and the “Plant response rating, Pigweed” value [8, 28] was 0. For the same compound, the “Plant response rating, Pigweed” value [8, 29] was 30, the “Plant response rating, Pigweed” value [8, 30] was 50 and the “Plant response rating, Lambsquarters” value [9, 27] was 100. For the same compound, the “Plant response rating, Lambsquarters” value [9, 28] was 100, the “Plant response rating, Lambsquarters” value [9, 29] was 100 and the “Plant response rating, Lambsquarters” value [9, 30] was 100. The “Plant response rating, Sunflower” value [10, 27] was 0, the “Plant response rating, Corn” value [11, 27] was 0 and the “Plant response rating, Corn” value [11, 28] was 0. The “Plant response rating, Corn” value [11, 29] was 0, the “Plant response rating, Corn” value [11, 30] was 30 and the “Plant response rating, Bermudagrass” value [12, 27] was 70. The “Plant response rating, Bermudagrass” value [12, 28] was 60, the “Plant response rating, Bermudagrass” value [12, 29] was 70 and the “Plant response rating, Bermudagrass” value [12, 30] was 100. The “Plant response rating, Surinam grass” value [13, 27] was 0, the “Plant response rating, Surinam grass” value [13, 28] was 0 and the “Plant response rating, Surinam grass” value [13, 29] was 0. For the same compound, the “Plant response rating, Surinam grass” value [13, 30] was 100, the “Plant response rating, Cupgrass, Woolly” value [14, 27] was 60 and the “Plant response rating, Cupgrass, Woolly” value [14, 28] was 0. For the same compound, the “Plant response rating, Cupgrass, Woolly” value [14, 29] was 40, the “Plant response rating, Cupgrass, Woolly” value [14, 30] was 100 and the “Plant response rating, Nightshade” value ([15]; Rate 31 g/ha, scale 0 to 100) was 0. The “Plant response rating, Nightshade” value ([15]; Rate 62 g/ha, scale 0 to 100) was 0, the “Plant response rating, Nightshade” value ([15]; Rate 125 g/ha; scale 0 to 100, 0 no effect, 100 complete control) was 50 and the “Plant response rating, Nightshade” value ([15]; Rate 250 g/ha, scale 0 to 100, 0 no effect, 100 complete control) was 90. The “Plant response rating, Nutsedge” value [16, 27] was 0, the “Plant response rating, Nutsedge” value [16, 28] was 0 and the “Plant response rating, Nutsedge” value [16, 29] was 0. For the same compound, the “Plant response rating, Nutsedge” value [16, 30] was 40, the “Plant response rating, Goosegrass” value [17, 27] was 90 and the “Plant response rating, Goosegrass” value [17, 28] was 20. The “Plant response rating, Goosegrass” value [17, 29] was 80, the “Plant response rating, Goosegrass” value [17, 30] was 100 and the “Plant response rating, Cocklebur” value [18, 27] was 0. The “Plant response rating, Cocklebur” value [18, 28] was 0, the “Plant response rating, Cocklebur” value [18, 29] was 0 and the “Plant response rating, Cocklebur” value [18, 30] was 0. For the same compound, the “Plant response rating, Sunflower” value ([22]; Rate 31 g/ha) was 0, the “Plant response rating, Sunflower” value ([22]; Rate 62 g/ha) was 0 and the “Plant response rating, Sunflower” value ([20]; Rate 250 g/ha) was 50.
